According to the NIST ThermoML archive (doi:10.1016/j.fluid.2010.07.015):

Test: wn = mass fraction of the nth substance listed
Conditions: 101 kPa, Radial Heat Flow Method

[Al] [aluminum] + [Sn]
Conditions	thermal conductivity [W/m/K]
323 K, Crystal, w1 = 0.022	98.8
323 K, Crystal, w1 = 0.25	139.3
323 K, Crystal, w1 = 0.5	191.7
323 K, Crystal, w1 = 0.75	235.5
343 K, Crystal, w1 = 0.022	97.4
343 K, Crystal, w1 = 0.25	136.8
343 K, Crystal, w1 = 0.5	185.3
343 K, Crystal, w1 = 0.75	233.7
363 K, Crystal, w1 = 0.005	83.5
363 K, Crystal, w1 = 0.022	93.3
363 K, Crystal, w1 = 0.25	135.9
363 K, Crystal, w1 = 0.5	180.6
363 K, Crystal, w1 = 0.75	228.2
383 K, Crystal, w1 = 0.005	79.5
383 K, Crystal, w1 = 0.022	92.7
383 K, Crystal, w1 = 0.25	132.3
383 K, Crystal, w1 = 0.5	177
383 K, Crystal, w1 = 0.75	224.4
403 K, Crystal, w1 = 0.005	78.7
403 K, Crystal, w1 = 0.022	92.9
403 K, Crystal, w1 = 0.25	130.5
403 K, Crystal, w1 = 0.5	174.6
403 K, Crystal, w1 = 0.75	220.9
423 K, Crystal, w1 = 0.005	78.5
423 K, Crystal, w1 = 0.022	90.5
423 K, Crystal, w1 = 0.25	125.4
423 K, Crystal, w1 = 0.5	170.6
423 K, Crystal, w1 = 0.75	217.6
423 K, Crystal, w1 = 1	302.9
443 K, Crystal, w1 = 0.005	77.8
443 K, Crystal, w1 = 0.022	88.2
443 K, Crystal, w1 = 0.25	123.9
443 K, Crystal, w1 = 0.5	166.6
443 K, Crystal, w1 = 0.75	211.4
463 K, Crystal, w1 = 0.005	76.3
463 K, Crystal, w1 = 0.022	86.3
463 K, Crystal, w1 = 0.25	118
463 K, Crystal, w1 = 0.5	160.1
463 K, Crystal, w1 = 0.75	207
473 K, Crystal, w1 = 1	288.3
483 K, Crystal, w1 = 0.005	75.8
483 K, Crystal, w1 = 0.022	82.7
483 K, Crystal, w1 = 0.25	116.5
483 K, Crystal, w1 = 0.5	152.6
483 K, Crystal, w1 = 0.75	196.2
493 K, Crystal, w1 = 0.005	69.7
493 K, Crystal, w1 = 0.022	80.3
493 K, Crystal, w1 = 0.25	112.3
493 K, Crystal, w1 = 0.5	142
493 K, Crystal, w1 = 0.75	188.5
501 K, Liquid, w1 = 0.005	73.8
523 K, Crystal, w1 = 1	278.6
573 K, Crystal, w1 = 1	261.8
623 K, Crystal, w1 = 1	255.7
673 K, Crystal, w1 = 1	244.8
723 K, Crystal, w1 = 1	241.4
773 K, Crystal, w1 = 1	238.6
823 K, Crystal, w1 = 1	227.4
873 K, Crystal, w1 = 1	226.1
923 K, Crystal, w1 = 1	208.8
933 K, Liquid, w1 = 1	235

[Sn] [tin] + [Al]
thermal conductivity [W/m/K], w2 = 0
Conditions	373 K	393 K	413 K	433 K	453 K	473 K	504 K
Crystal	67.2	65.2	63.3	61.7	62.5	60.6	–
Liquid	–	–	–	–	–	–	67.2
